Measurements taken from publication PMC7206119, “RIP1 inhibition blocks inflammatory diseases but not tumor growth or metastases” (Cell Death and Differentiation, 2019).

Legend:
Assay in all cases: biochemical
Parameters in all cases: Thermo Fisher SelectScreen kinase panel: Z'-LYTE and Adapta activity, LanthaScreen binding
Ron = molecular target: T1, Ron (Homo sapiens, UniProt Q04912)
T1 construct: gene MST1R
Experimental: (§1) 5 88 GNE684 was tested in Thermo Fisher Scientific SelectScreen assay (Madison, WI) 89 against 221 representative kinases at a concentration of 10 µM, which is 476-fold greater than the Ki app 90 for GNE684 against human RIP1 in the RIP1 enzyme 91 assay. The kinase assays were carried out using Z'-LYTE and Adapta activity and 92 LanthaScreen binding assays (Thermo Fisher Scientific, Madison WI) following 93 protocols developed and performed by Thermo Fisher Scientific 94 (https://www.thermofisher.com/us/en/home/products-and-services/services/custom-95 services/screening-and-profiling-services/selectscreen-profiling-service/selectscreen-96 kinase-profiling-service.html). 97 GNE684 was also tested against 468 kinases in the KINOMEscan scanMAX kinase 98 binding assay panel at a concentration of 10 µM following protocols developed and 99 performed by DiscoverX (http://www.discoverx.com/kinase_profiling).

Ros = molecular target: T2, Ros (Homo sapiens, UniProt P08922)
T2 construct: gene ROS1
Experimental: as §1

PLK3 = PLK3 (Homo sapiens, UniProt Q9H4B4)
Experimental: as §1

CDK7/cyclinH = CDK7/cyclinH (Homo sapiens, UniProt P50613)
Experimental: as §1

KHS1 = molecular target: T3, KHS1 (Homo sapiens, UniProt Q9Y4K4)
T3 construct: gene MAP4K5
Experimental: as §1

eEF-2K = molecular target: T4, eEF-2K (Homo sapiens, UniProt O00418)
T4 construct: gene EEF2K
Experimental: as §1

ASK1 = molecular target: T5, ASK1 (Homo sapiens, UniProt Q99683)
T5 construct: gene MAP3K5
Experimental: as §1

MAP4K4 = MAP4K4 (Homo sapiens, UniProt O95819)
Experimental: as §1

CLK2 = CLK2 (Homo sapiens, UniProt P49760)
Experimental: as §1

p38-delta = molecular target: T6, p38-delta (Homo sapiens, UniProt O15264)
T6 construct: gene MAPK13
Experimental: as §1

SGK2 = SGK2 (Homo sapiens, UniProt Q9HBY8)
Experimental: as §1

MET = MET (Homo sapiens, UniProt P08581)
Experimental: as §1

Mer = molecular target: T7, Mer (Homo sapiens, UniProt Q12866)
T7 construct: gene MERTK
Experimental: as §1

JAK2 = JAK2 (Homo sapiens, UniProt O60674)
Experimental: as §1

SIK2 = SIK2 (Homo sapiens, UniProt Q9H0K1)
Experimental: as §1

MST4 = molecular target: T8, MST4 (Homo sapiens, UniProt Q9P289)
T8 construct: gene STK26
Experimental: as §1

ERBB2 = ERBB2 (Homo sapiens, UniProt P04626)
Experimental: as §1

CDK9/cyclinT1 = CDK9/cyclinT1 (Homo sapiens, UniProt P50750)
Experimental: as §1

GRK6 = GRK6 (Homo sapiens, UniProt P43250)
Experimental: as §1

CDK2/cyclinA = CDK2/cyclinA (Homo sapiens, UniProt P24941)
Experimental: as §1

Aurora_A = molecular target: T9, Aurora_A (Homo sapiens, UniProt O14965)
T9 construct: gene AURKA
Experimental: as §1

MAPKAPK2 = MAPKAPK2 (Homo sapiens, UniProt P49137)
Experimental: as §1

SGK3 = SGK3 (Homo sapiens, UniProt Q96BR1)
Experimental: as §1

Chain of MAPKAPK2 (P49137 whole entry): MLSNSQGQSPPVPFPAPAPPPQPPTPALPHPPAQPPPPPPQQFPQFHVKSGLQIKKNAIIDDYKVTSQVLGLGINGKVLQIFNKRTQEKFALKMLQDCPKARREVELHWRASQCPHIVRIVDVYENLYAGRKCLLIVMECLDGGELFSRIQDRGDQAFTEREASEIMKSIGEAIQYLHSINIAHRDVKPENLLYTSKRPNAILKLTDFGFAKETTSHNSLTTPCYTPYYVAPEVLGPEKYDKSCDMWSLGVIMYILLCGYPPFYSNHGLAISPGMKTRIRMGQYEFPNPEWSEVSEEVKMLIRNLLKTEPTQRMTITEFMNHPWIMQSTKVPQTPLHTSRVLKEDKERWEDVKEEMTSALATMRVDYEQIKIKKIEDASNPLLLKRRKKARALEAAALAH
Chain of PLK3 (Q9H4B4 whole entry): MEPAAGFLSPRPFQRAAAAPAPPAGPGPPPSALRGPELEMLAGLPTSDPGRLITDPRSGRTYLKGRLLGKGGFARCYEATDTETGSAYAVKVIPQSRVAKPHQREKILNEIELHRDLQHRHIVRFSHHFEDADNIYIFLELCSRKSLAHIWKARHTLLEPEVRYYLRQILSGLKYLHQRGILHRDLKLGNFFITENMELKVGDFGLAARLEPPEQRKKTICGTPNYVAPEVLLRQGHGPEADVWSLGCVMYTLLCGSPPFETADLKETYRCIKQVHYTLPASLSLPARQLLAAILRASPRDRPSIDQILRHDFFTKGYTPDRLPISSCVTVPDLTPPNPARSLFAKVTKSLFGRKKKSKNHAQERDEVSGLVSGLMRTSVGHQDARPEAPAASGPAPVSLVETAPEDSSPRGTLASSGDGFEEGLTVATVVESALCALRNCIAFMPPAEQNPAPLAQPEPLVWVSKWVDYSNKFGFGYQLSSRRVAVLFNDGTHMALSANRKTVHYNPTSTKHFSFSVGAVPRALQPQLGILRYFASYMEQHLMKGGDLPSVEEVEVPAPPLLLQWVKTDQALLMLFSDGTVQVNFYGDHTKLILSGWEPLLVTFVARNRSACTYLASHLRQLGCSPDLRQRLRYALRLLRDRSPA
T3 sequence (Q9Y4K4 whole entry): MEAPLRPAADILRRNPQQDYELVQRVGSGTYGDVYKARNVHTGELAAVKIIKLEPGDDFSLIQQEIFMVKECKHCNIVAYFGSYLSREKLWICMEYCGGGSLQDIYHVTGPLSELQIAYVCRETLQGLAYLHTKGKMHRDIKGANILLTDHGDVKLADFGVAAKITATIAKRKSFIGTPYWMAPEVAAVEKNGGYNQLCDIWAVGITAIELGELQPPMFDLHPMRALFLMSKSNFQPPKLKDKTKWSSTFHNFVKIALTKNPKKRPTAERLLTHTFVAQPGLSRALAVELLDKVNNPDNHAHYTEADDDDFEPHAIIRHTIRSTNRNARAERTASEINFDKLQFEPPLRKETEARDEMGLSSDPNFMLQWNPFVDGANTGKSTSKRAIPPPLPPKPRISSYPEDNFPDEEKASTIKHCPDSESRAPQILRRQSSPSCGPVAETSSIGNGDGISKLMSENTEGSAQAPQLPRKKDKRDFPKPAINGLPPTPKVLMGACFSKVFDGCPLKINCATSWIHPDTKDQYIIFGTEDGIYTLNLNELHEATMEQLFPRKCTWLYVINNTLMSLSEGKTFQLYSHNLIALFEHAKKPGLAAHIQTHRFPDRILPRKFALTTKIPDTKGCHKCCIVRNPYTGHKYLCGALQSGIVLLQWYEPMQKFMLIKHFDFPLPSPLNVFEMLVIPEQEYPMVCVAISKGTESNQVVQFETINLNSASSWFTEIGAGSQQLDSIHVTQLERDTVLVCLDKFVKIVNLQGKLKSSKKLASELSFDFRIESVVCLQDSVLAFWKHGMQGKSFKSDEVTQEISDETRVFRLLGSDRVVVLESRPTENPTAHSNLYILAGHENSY
Chain of JAK2 (O60674 whole entry): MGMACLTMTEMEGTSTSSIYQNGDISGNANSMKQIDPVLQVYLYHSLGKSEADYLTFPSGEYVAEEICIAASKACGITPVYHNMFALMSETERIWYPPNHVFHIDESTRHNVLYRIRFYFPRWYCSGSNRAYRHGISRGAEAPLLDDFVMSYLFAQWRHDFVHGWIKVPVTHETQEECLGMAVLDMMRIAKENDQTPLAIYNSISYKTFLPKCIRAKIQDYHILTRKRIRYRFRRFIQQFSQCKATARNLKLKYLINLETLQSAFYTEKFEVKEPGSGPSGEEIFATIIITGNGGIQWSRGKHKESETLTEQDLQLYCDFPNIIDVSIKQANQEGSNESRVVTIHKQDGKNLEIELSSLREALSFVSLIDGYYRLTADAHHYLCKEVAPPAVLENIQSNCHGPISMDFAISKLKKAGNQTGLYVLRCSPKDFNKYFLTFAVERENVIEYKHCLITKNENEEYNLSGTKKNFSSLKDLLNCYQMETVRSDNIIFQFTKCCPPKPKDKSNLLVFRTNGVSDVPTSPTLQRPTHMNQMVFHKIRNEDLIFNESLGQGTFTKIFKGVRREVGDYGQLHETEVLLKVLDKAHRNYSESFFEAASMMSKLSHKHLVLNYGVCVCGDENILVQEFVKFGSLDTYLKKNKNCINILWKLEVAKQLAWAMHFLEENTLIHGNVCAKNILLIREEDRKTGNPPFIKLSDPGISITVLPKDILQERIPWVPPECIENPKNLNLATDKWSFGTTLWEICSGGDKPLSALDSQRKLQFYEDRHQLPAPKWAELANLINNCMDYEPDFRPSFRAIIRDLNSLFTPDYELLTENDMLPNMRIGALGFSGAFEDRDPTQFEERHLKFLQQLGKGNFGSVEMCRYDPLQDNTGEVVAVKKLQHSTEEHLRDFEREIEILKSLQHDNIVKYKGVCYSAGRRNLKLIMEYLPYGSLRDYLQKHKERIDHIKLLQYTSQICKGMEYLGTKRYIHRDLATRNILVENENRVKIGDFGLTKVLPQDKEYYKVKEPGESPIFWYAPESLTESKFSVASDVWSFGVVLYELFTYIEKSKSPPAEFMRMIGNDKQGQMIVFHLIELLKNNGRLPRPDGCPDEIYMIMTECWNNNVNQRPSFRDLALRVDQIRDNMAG
T4 sequence (O00418 whole entry): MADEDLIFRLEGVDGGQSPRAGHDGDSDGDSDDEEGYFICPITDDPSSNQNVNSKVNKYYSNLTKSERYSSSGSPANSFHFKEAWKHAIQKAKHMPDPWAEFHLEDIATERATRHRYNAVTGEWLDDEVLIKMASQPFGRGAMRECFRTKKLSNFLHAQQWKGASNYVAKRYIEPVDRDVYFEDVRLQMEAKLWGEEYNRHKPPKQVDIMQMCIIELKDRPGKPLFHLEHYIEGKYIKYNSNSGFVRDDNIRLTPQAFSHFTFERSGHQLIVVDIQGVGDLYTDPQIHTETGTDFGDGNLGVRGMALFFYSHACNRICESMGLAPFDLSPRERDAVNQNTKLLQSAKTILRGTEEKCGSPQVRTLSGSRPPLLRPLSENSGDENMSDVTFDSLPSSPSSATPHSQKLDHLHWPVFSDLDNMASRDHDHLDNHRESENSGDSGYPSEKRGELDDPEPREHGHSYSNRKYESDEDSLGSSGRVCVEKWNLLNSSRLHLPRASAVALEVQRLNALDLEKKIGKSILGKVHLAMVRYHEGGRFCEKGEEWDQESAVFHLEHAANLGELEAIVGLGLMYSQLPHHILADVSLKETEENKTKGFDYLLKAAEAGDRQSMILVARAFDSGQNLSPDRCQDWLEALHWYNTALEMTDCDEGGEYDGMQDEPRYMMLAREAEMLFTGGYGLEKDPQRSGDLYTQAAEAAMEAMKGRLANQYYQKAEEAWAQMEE
Chain of SGK3 (Q96BR1 whole entry): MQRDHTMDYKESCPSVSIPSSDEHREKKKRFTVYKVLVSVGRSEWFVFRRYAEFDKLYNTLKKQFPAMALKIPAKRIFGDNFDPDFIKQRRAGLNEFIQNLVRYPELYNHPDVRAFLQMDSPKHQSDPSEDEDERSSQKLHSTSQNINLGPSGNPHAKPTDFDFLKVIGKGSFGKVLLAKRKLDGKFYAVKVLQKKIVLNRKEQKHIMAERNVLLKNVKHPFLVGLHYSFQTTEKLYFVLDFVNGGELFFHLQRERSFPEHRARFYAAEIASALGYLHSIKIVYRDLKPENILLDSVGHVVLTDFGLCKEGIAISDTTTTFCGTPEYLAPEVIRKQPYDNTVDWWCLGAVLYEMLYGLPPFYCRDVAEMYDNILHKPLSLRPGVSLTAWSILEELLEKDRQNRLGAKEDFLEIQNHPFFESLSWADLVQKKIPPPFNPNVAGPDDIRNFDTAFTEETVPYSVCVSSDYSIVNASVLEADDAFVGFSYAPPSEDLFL
Chain of CLK2 (P49760 whole entry): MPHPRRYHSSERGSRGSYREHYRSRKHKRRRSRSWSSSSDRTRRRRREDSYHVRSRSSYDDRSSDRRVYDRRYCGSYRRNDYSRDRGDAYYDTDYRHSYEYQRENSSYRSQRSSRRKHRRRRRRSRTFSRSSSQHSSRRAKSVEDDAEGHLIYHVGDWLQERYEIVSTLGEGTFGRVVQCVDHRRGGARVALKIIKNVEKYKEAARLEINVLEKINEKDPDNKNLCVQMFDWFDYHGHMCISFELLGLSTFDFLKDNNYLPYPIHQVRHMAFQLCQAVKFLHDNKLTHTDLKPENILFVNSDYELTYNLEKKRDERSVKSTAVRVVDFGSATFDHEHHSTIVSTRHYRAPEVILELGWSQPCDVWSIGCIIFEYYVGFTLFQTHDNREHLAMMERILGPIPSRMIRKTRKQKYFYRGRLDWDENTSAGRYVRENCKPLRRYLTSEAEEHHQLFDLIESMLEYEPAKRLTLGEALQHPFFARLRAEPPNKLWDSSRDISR

COc1cc2c(cn1)N(C)C(=O)[C@@H](NC(=O)c1nc3n(n1)[C@H](c1ccccc1)CC3)CC2 [GNE684, (S)-N-((S)-7-methoxy-1-methyl-2-oxo-2,3,4,5-tetrahydro-1H-pyrido[3,4-b]azepin-3-yl)-5-phenyl-6,7-dihydro-5H-pyrrolo[1,2-b][1,2,4]triazole-2-carboxamide]
inhibition at 10 µM (Ron): 4.5%
inhibition at 10 µM (Ros): 3%
inhibition at 10 µM (PLK3): 5%
inhibition at 10 µM (CDK7/cyclinH): 5%
inhibition at 10 µM (KHS1): 12%
inhibition at 10 µM (eEF-2K): 0%
inhibition at 10 µM (ASK1): 4%
inhibition at 10 µM (MAP4K4): 11.5%
inhibition at 10 µM (CLK2): 2.5%
inhibition at 10 µM (p38-delta): 3.5%
inhibition at 10 µM (SGK2): 5.5%
inhibition at 10 µM (MET): -2%
inhibition at 10 µM (Mer): -5%
inhibition at 10 µM (JAK2): 2.5%
inhibition at 10 µM (SIK2): 8.5%
inhibition at 10 µM (MST4): 3.5%
inhibition at 10 µM (ERBB2): -5.5%
inhibition at 10 µM (CDK9/cyclinT1): 9%
inhibition at 10 µM (GRK6): 6.5%
inhibition at 10 µM (CDK2/cyclinA): 6.5%
inhibition at 10 µM (Aurora_A): 3%
inhibition at 10 µM (MAPKAPK2): 4.5%
inhibition at 10 µM (SGK3): 1.5%
